From PubChem BioAssay AID2060487 (Molecular Pharmacology Branch, DTP, NCI, 2025)

Tested on: 997537-175-T-J1-PDC complex spheroid viability
Assay: Anticancer human tumor 997537-175-T-J1-PDC patient-derived colon adenocarcinoma cell line growth inhibition [GQUAD]
Conditions: for IC50: curve of first compound; for viability, T/C: stronger effect = lower value
Summary of the method: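 Tumor cells were grown as complex spheroids with HUVEC endothelial cells and mesenchymal stem cells as stroma. G-quadruplex stabilizers were combined with targeted agents over half-log dilutions from near the clinical Cmax, or from 10 microM.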
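Also: spheroids exposed to the agents for 7 days.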
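For viability, T/C in this document: 100% = DMSO vehicle control viability.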

- IC50 (second compound 0.0316 µM): > 316 nM
- IC50 (second compound 0.1 µM): > 316 nM
- IC50 (second compound 0.316 µM): > 316 nM
- IC50 (second compound 1 µM): > 316 nM
- IC50 (second compound 3.16 µM): > 316 nM
- IC50 (second compound 10 µM): > 316 nM
Compound: CC[C@@]1(O)C(=O)OCc2c1cc1n(c2=O)Cc2cc3c(CN(C)C)c(O)ccc3nc2-1 + Cc1cnc(CNC(=O)c2c(=O)c3ccc(N4CCCN(C)CC4)nc3n3c2sc2ccccc23)cn1
- viability, T/C (second compound 0.0316 µM, first compound 0.000999 µM): 108%
- viability, T/C (second compound 0.0316 µM, first compound 0.00316 µM): 104%
- viability, T/C (second compound 0.0316 µM, first compound 0.00999 µM): 97.8%
- viability, T/C (second compound 0.0316 µM, first compound 0.0316 µM): 82%
- viability, T/C (second compound 0.0316 µM, first compound 0.0999 µM): 72.3%
- viability, T/C (second compound 0.0316 µM, first compound 0.316 µM): 80.4%
- viability, T/C (second compound 0.1 µM, first compound 0.000999 µM): 97.8%
- viability, T/C (second compound 0.1 µM, first compound 0.00316 µM): 97.5%
- viability, T/C (second compound 0.1 µM, first compound 0.00999 µM): 92.7%
- viability, T/C (second compound 0.1 µM, first compound 0.0316 µM): 90.1%
- viability, T/C (second compound 0.1 µM, first compound 0.0999 µM): 97.5%
- viability, T/C (second compound 0.1 µM, first compound 0.316 µM): 58%
- viability, T/C (second compound 0.316 µM, first compound 0.000999 µM): 92.8%
- viability, T/C (second compound 0.316 µM, first compound 0.00316 µM): 88.8%
- viability, T/C (second compound 0.316 µM, first compound 0.00999 µM): 105%
- viability, T/C (second compound 0.316 µM, first compound 0.0316 µM): 85%
- viability, T/C (second compound 0.316 µM, first compound 0.0999 µM): 98.8%
- viability, T/C (second compound 0.316 µM, first compound 0.316 µM): 66.3%
- viability, T/C (second compound 1 µM, first compound 0.000999 µM): 89.8%
- viability, T/C (second compound 1 µM, first compound 0.00316 µM): 93.5%
- viability, T/C (second compound 1 µM, first compound 0.00999 µM): 101%
- viability, T/C (second compound 1 µM, first compound 0.0316 µM): 93.5%
- viability, T/C (second compound 1 µM, first compound 0.0999 µM): 108%
- viability, T/C (second compound 1 µM, first compound 0.316 µM): 59%
- viability, T/C (second compound 3.16 µM, first compound 0.000999 µM): 75%
- viability, T/C (second compound 3.16 µM, first compound 0.00316 µM): 104%
- viability, T/C (second compound 3.16 µM, first compound 0.00999 µM): 118%
- viability, T/C (second compound 3.16 µM, first compound 0.0316 µM): 89.7%
- viability, T/C (second compound 3.16 µM, first compound 0.0999 µM): 96.1%
- viability, T/C (second compound 3.16 µM, first compound 0.316 µM): 58.8%
- viability, T/C (second compound 10 µM, first compound 0.000999 µM): 97.7%
- viability, T/C (second compound 10 µM, first compound 0.00316 µM): 108%
- viability, T/C (second compound 10 µM, first compound 0.00999 µM): 130%
- viability, T/C (second compound 10 µM, first compound 0.0316 µM): 69%
- viability, T/C (second compound 10 µM, first compound 0.0999 µM): 94.5%
- viability, T/C (second compound 10 µM, first compound 0.316 µM): 70.2%
